The supplement of paper PMC5908809

Key:
NKL (IL-2 2.5 ng/mL) [1] = assay: drug sensitivity score (DSS) (DSS units); higher = more sensitive; extreme values may be limits of the assay; conditions: 72 h
[2] = system: normal primary NK cells, pool 2 (3 donors) (IL-2 2.5 ng/mL); assay: as above; conditions: 72 h
NK-92 (IL-2 2.5 ng/mL) [3] = assay: as above; conditions: 72 h
DERL-7 (IL-2 2.5 ng/mL) [4] = assay: as above; conditions: 72 h
[5] = system: normal primary NK cells, pool 1 (3 donors), resting (IL-2 0 ng/mL); assay: as above; conditions: 72 h
[6] = system: normal primary NK cells, pool 1 (3 donors) (IL-2 2.5 ng/mL); assay: as above; conditions: 72 h
YT (IL-2 2.5 ng/mL) [7] = assay: as above; conditions: 72 h
NK-YS (IL-2 2.5 ng/mL) [8] = assay: as above; conditions: 72 h
SNK-6 (IL-2 2.5 ng/mL) [9] = assay: as above; conditions: 72 h
IMC-1 (IL-2 20 ng/mL) [10] = assay: as above; conditions: 72 h
KAI3 (IL-2 2.5 ng/mL) [11] = assay: as above; conditions: 72 h
KHYG-1 (IL-2 2.5 ng/mL) [12] = assay: as above; conditions: 72 h
[13] = system: normal primary NK cells, pool 3 (3 donors) (IL-2 2.5 ng/mL); assay: as above; conditions: 72 h
[14] = system: normal NK cells expanded with K562-aAPC; assay: as above; conditions: 72 h; IL-2 2.5 ng/mL
Protocol: (§1)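 Drug sensitivity and resistance testing on K562-aAPC-expanded normal NK cells: 5 concentrations (10-fold steps over a 10,000-fold range), 72 h at 37 °C, viability by CellTiter-Glo normalised to DMSO and benzethonium chloride controls; DSS from the fitted curve.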

NKL (IL-2 2.5 ng/mL) [15] = assay: percent inhibition of viability; higher = more inhibition; conditions: 72 h
[16] = system: normal primary NK cells, pool 2 (3 donors) (IL-2 2.5 ng/mL); assay: as above; conditions: 72 h
NK-92 (IL-2 2.5 ng/mL) [17] = assay: as above; conditions: 72 h
DERL-7 (IL-2 2.5 ng/mL) [18] = assay: as above; conditions: 72 h
[19] = system: normal primary NK cells, pool 1 (3 donors), resting (IL-2 0 ng/mL); assay: as above; conditions: 72 h
[20] = system: normal primary NK cells, pool 1 (3 donors) (IL-2 2.5 ng/mL); assay: as above; conditions: 72 h
YT (IL-2 2.5 ng/mL) [21] = assay: as above; conditions: 72 h
NK-YS (IL-2 2.5 ng/mL) [22] = assay: as above; conditions: 72 h
SNK-6 (IL-2 2.5 ng/mL) [23] = assay: as above; conditions: 72 h
IMC-1 (IL-2 20 ng/mL) [24] = assay: as above; conditions: 72 h
KAI3 (IL-2 2.5 ng/mL) [25] = assay: as above; conditions: 72 h
KHYG-1 (IL-2 2.5 ng/mL) [26] = assay: as above; conditions: 72 h
[27] = system: normal primary NK cells, pool 3 (3 donors) (IL-2 2.5 ng/mL); assay: as above; conditions: 72 h
[28] = system: normal NK cells expanded with K562-aAPC; assay: as above; conditions: 72 h, IL-2 2.5 ng/mL
Protocol: as §1

COc1ccc(-c2cc3c(C)nc(N)nc3n([C@H]3CC[C@H](OCCO)CC3)c2=O)cn1 (max concentration tested 10000 nM)
Conditions	drug sensitivity score
DERL-7 (IL-2 2.5 ng/mL) [4]	27.6
IMC-1 (IL-2 20 ng/mL) [10]	2.72
KAI3 (IL-2 2.5 ng/mL) [11]	16.5
KHYG-1 (IL-2 2.5 ng/mL) [12]	15
NK-92 (IL-2 2.5 ng/mL) [3]	22.4
NK-YS (IL-2 2.5 ng/mL) [8]	14.1
NKL (IL-2 2.5 ng/mL) [1]	16.6
SNK-6 (IL-2 2.5 ng/mL) [9]	7.29
YT (IL-2 2.5 ng/mL) [7]	19.1
[2]	11
[5]	14.5
[6]	11.4
[13]	8.86
[14]	11.5

percent inhibition of viability [%]
Conditions	1 nM	10 nM	100 nM	1000 nM	10000 nM
DERL-7 (IL-2 2.5 ng/mL) [18]	2.23	21.8	69.6	92	99.9
IMC-1 (IL-2 20 ng/mL) [24]	-2.45	-13.7	-14.2	-15.4	64.2
KAI3 (IL-2 2.5 ng/mL) [25]	1.74	8.43	34.4	63.8	82.1
KHYG-1 (IL-2 2.5 ng/mL) [26]	2.41	2.54	15.7	68.3	103
NK-92 (IL-2 2.5 ng/mL) [17]	16.6	20.7	49.1	75.7	97.2
NK-YS (IL-2 2.5 ng/mL) [22]	1.08	-1.02	20.1	62.4	85
NKL (IL-2 2.5 ng/mL) [15]	-11.1	4.69	32.7	66.2	93.9
SNK-6 (IL-2 2.5 ng/mL) [23]	-16.2	-10.9	2.3	30.8	65.3
YT (IL-2 2.5 ng/mL) [21]	8.27	10.8	38.5	76.5	86.5
[16]	-0.57	7.93	21.5	39.9	96.6
[19]	19.4	14.7	33.7	39	98.8
[20]	-2.26	7.17	28.9	35.8	99.4
[27]	5.05	8.38	19.9	31.5	96.7
[28]	-6.01	3.97	27.8	42.7	60.2

CCC/C=C/C=C/C(=O)O[C@H]1/C(=C/C(=O)OC)C[C@H]2C[C@H]([C@@H](C)O)OC(=O)C[C@H](O)C[C@@H]3C[C@H](OC(C)=O)C(C)(C)[C@](O)(C[C@@H]4C/C(=C/C(=O)OC)C[C@H](/C=C/C(C)(C)[C@]1(O)O2)O4)O3 [Bryostatin 1] (max concentration tested 100 nM)
Conditions	drug sensitivity score
DERL-7 (IL-2 2.5 ng/mL) [4]	8.96
IMC-1 (IL-2 20 ng/mL) [10]	23.9
KAI3 (IL-2 2.5 ng/mL) [11]	0
KHYG-1 (IL-2 2.5 ng/mL) [12]	35.4
NK-92 (IL-2 2.5 ng/mL) [3]	31.7
NK-YS (IL-2 2.5 ng/mL) [8]	0
NKL (IL-2 2.5 ng/mL) [1]	0
SNK-6 (IL-2 2.5 ng/mL) [9]	14.9
YT (IL-2 2.5 ng/mL) [7]	0
[2]	0
[5]	0
[6]	0
[13]	0
[14]	0

percent inhibition of viability [%]
Conditions	0.01 nM	0.1 nM	1 nM	10 nM	100 nM
DERL-7 (IL-2 2.5 ng/mL) [18]	-2.14	-19.4	24.4	20	35.2
IMC-1 (IL-2 20 ng/mL) [24]	-3.95	3.27	75.6	68.3	62.7
KAI3 (IL-2 2.5 ng/mL) [25]	0.24	5.23	4.64	21.7	-6.8
KHYG-1 (IL-2 2.5 ng/mL) [26]	1.17	35.4	102	106	99.2
NK-92 (IL-2 2.5 ng/mL) [17]	-10.7	25.5	87.5	103	95.4
NK-YS (IL-2 2.5 ng/mL) [22]	-5.4	-9.97	-7.91	1.59	-4.21
NKL (IL-2 2.5 ng/mL) [15]	-18.8	-58.9	-74.9	-67.5	-81.5
SNK-6 (IL-2 2.5 ng/mL) [23]	13.4	39.5	64.4	35.5	18
YT (IL-2 2.5 ng/mL) [21]	2.73	-2.33	-3.22	1.88	1.24
[16]	-15.1	-25.1	-48.2	-38	-37.6
[19]	-14.3	14.4	-0.07	-6.68	5.47
[20]	-10.4	-18.6	-14.9	-23.1	-10.7
[27]	-5.42	-30.1	-40.2	-35	-20.7
[28]	-6.34	-41.9	-55.2	-31.9	-30.3
